Data from ChEMBL document CHEMBL1130851, “Synthesis and biological evaluation of a series of 2'-fluorinated-2',3'-dideoxy-2',3'-didehydro-(L)-nucleosides” (Bioorg Med Chem Lett, 1998).
pEC50, pIC50: −log10 of the molar value.

Tests used:
Hepatitis B virus = assay: Compound concentration required to inhibit the viral cell proliferation by 50% against HBV; assay type: functional, organism-based
CCRF-CEM = assay: Compound concentration required to inhibit cell growth by 50% against CEM cells; assay type: functional; settings: Homo sapiens, read-out: ID50 (the source's name)
[1] = Compound was tested for anti-HIV activity in MT-2/ IIIB cells and the ratio of the drug concentration (ID50) required to inhibit cell growth was reported.; assay type: functional, Homo sapiens
[2] = test system: Human immunodeficiency virus; assay: Compound concentration required to inhibit the viral cell proliferation by 50% against HIV; Range = 0.1-0.2; assay type: functional, organism-based; settings: Human immunodeficiency virus 1
[3] = test system: Human immunodeficiency virus; assay: Compound concentration required to inhibit the viral cell proliferation by 50% against HIV; Range = 2-3; assay type: functional, organism-based; settings: Human immunodeficiency virus 1
[4] = test system: Human immunodeficiency virus; assay: Compound concentration required to inhibit the viral cell proliferation by 50% against HIV; Range = 0.3-0.5; assay type: functional, organism-based; settings: Human immunodeficiency virus 1

Compound	pEC50 (Hepatitis B virus)	pIC50 (CCRF-CEM)	ID50 ratio [1]	pEC50 [2]	pEC50 [3]	pEC50 [4]
Nc1nc(=O)n([C@@H]2C=C[C@H](CO)O2)cc1F [ELVUCITABINE]	8.10	5.15	9	7.00	–	–
Nc1ccn([C@@H]2CS[C@H](CO)O2)c(=O)n1 [LAMIVUDINE]	7.52	4.30	>100	–	5.70	–
Nc1nc(=O)n([C@@H]2CC[C@H](CO)O2)cc1F	7.44	4.17	>100	–	–	6.52
